Data: patent US20080287396A1, “Phosphonated Fluoroquinolones, Antibacterial Analogs Thereof, and Methods for the Prevention and Treatment of Bone and Joint Infections” (TARGANTA THERAPEUTICA INC., priority 2005, published 2008)
Values after ≈ are worked out from the molar mass of the structure shown. “Also recorded” adds a separate entry of the source.

Experiments:
[1] = Regeneration of drug from bone powder-bound prodrug; format: in vitro ADME; details: for effect of the medium (presence or absence of serum) on regeneration rate: PBS vs serum
Protocol: Amounts of drug “regenerated” from the phosphonated parent prodrug were measured as follows. Washed bone powder-bound prodrugs from the above section were resuspended in 400 μL PBS or in 400 μL 50% (v/v in PBS) human or rat serum. […] Methanol (5× volume relative to supernatant) was added to each supernatant and the mixture was vortexed on a floor model vortex for 15 min to extract freed fluoroquinolone. The mixture was then centrifuged at 10 000 rpm for 15 min to pellet the insoluble material. The supernatant containing the extracted fluoroquinolone was recovered and evaporated to dryness in a speed vac. The dried pellets were resuspended in PBS and the amount of fluoroquinolone was determined by fluorescence measurements as described above. The percentage of drug regenerated was deduced from the difference between amount of bound prodrug and the amount of regenerated drug. The identity of regenerated drug was deduced by MIC determination; MICs of regenerated material matched those of parent drugs but not those of prodrugs.

S. aureus ATCC 13709 = assay: Prophylactic model of bone infection in rats; format: in vivo, rat; details: for prophylactic effect in rat model of bone infection, in words: Table 4 and FIGS. 6-8, doses as in Table 4; for bacterial titer compared with untreated group: 10 mg/kg IV 1 h after infection (positive control)
Protocol: To determine the activity in vivo of bisphosphonated prodrugs of fluoroquinolones, compounds 52 and 107, derivatives of parent compounds moxifloxacin 3 (for 52), and compounds 39, 44, 49, 54, 121, 129, 141, 145, 149, derivatives of parent compound gatifloxacin 15, were used in a prophylactic model for infection. Specifically, S. aureus ATCC 13709 cells were grown overnight at 37° C. in brain heart infusion broth (BHIB). Cells were subcultured into fresh BHIB and incubated for 4 to 5 h at 37° C. The cells were washed twice with phosphate-buffered saline (PBS) and resuspended in BHIB supplemented with 10% (vol./vol.) fetal bovine serum at a density of approximately 10^10 colony forming units (CFU)/ml (based upon turbidimetry). The suspension was aliquoted and a portion was used to check the CFU count. The culture was stored frozen (−80° C.) and was used without subculture. For use as an inoculum the culture was thawed, diluted in PBS and kept in an ice bath until it was used.
Animals were infected as described by O'Reilly et al. (Antimicrobial Agents and Chemotherapy (1992), 36(12): 2693-97) to generate the bone infection. Female CD rats (age, 57 to 70 days; n=5/group; Charles River, St-Constant, Canada) were anaesthetized by isofluorane before and during the surgery. Following complete induction of anesthesia, the rat was placed ventral side up and hair was shaved from the surgical site. The skin over the leg was cleaned and disinfected (proviodine-ethanol 70%). A longitudinal incision below the knee joint was made in the sagital plane. The incision was made over the bone below the “knee joint” (tibia head or condyle) but not completely extending to the ankle. A high speed drill fitted with a 2 mm bulb bit was used to drill a hole into the medullar cavity of the tibia. Rats were injected intra-tibially with 0.05 ml 5% sodium morrhuate (sclerosing agent) and then with 0.05 ml of S. aureus suspension (ca. 5×10^5 CFU/rat). The hole was sealed by applying a small amount of dry dental cement which immediately absorbs fluids and adheres to the site. The wound was closed using 3 metal skin clips. Moxifloxacin 3 (as a positive control) was injected once at 10 mg/kg intravenously 1 h postinfection in saline, while the fluoroquinolone prodrugs (prepared in 0.9% saline) were injected as a single intravenous bolus dose at different time points prior to the infection. For comparison, the parent drug (moxifloxacin 3 or gatifloxacin 15) was also injected intravenously once at a molar equivalent dose at the same time point prior the infection.
Infected rats were sacrificed by CO2 asphyxiation 24 h postinfection to monitor the bacterial CFU count. Infected tibiae were removed, dissected free of soft tissue, and weighed. The bones were ground using a metal ball mill, resuspended in 5 ml 0.9% NaCl, serially diluted and processed for quantitative cultures. For compounds 39, 44, 49, 54, 141, 145, 149, 1 ml of the 0.9% NaCl solution was added to 50 mg of charcoal before serial dilutions. Treatment efficacies were measured in terms of Log viable bacteria (Log CFU per gram of bone). The results obtained for each group of rats were evaluated by calculating the mean Log CFU and standard deviation. The limit of detection is 2 Log CFU/g of bone. Statistical comparisons of viable bacterial counts for the different treated and untreated groups were performed with Dunnett's multiple-comparison test. Differences were considered significant when the P value was <0.05 when comparing treated infected animals to the untreated infected ones.

[2] = Bone powder binding, fluorometric detection; details: for Binding to bone (%) Fluorescence: 1 mg/ml compound, bone meal powder 10 mg/ml in PBS, 37° C., 1 h
Protocol: (§1) The ability of the example molecules to bind to bone powder was established in two parallel fashions, using either LC/MS or fluorometric detection. For LC/MS detection, a stock solution (5 mM) of the compound to be tested was added to 0.1M Tris-HCl buffer pH 7, 0.15M NaCl to reach a final concentration of 100 μM. Triplicate samples (1 mL) of the compound solutions were intensively shaken for 10 min with or without 25 mg of fresh or 20 mg of vacuum dried ground rat tibia bone. The samples were then centrifuged for 15 min at 10 000 g. The presence of unbound compound was measured by injection of 30 μL of each of the supernatants into an Agilent 1100™ LC/UV system. For fluorometric detection, an individual compound was dissolved in PBS or water (compound 52) and resuspended at a concentration of 1 mg/ml in a slurry of bone meal powder (Now Foods, Bloomingdale, Ill., USA) in PBS at 10 mg/ml. The suspension of drug/prodrug in bone meal powder was incubated at 37° C. for 1 h to allow for binding, and centrifuged at 13 000 rpm for 2 min, before recovering the supernatant. The bone meal powder pellet was then washed three times with 1 ml of PBS. All supernatants were saved and assessed for fluoroquinolone content by fluorescence measurements at excitation/emission wavelengths of 280/465 nm. The amount of fluoroquinolone was determined from standard curves generated for each experiment. Amount of drug/prodrug bound to bone powder was deduced from the difference between the input amount (typically 1 mg) and the amount recovered in the supernatants after binding. In all binding experiments, >99% of input drug was recovered in the supernatant for the parent drugs.

[3] = test system: S. aureus strains ATCC13709 and RN4220; assay: microbe, parasite or virus in culture; format: cell-based; details: Staphylococcus aureus, ATCC13709; CAMHB, 37° C., 18 h; data not shown; read-out: minimum inhibitory concentration (MIC)
Protocol: Susceptibility of S. aureus strains ATCC13709 and RN4220 to the commercial antibiotics and synthesized compounds was determined by following the guidelines set by the Clinical and Laboratory Standards Institute (formerly the National Committee for Clinical Laboratory Standards) (M26-A). Compounds were diluted two-fold serially in DMSO and transferred to cation-adjusted Mueller Hinton broth (CAMHB; Becton Dickinson). 50 μL of compounds diluted in CAMHB was mixed with 100 μL of bacteria diluted in CAMHB in 96-well microtiter plates. The final number of micro-organisms in the assay was 5×10^5 c.f.u. per mL and the final concentration of DMSO in the assay was 1.25%. Assays were set up in duplicate and incubated at 37° C. for 18 h. The concentration of compound that inhibited visible growth was reported as the minimum inhibitory concentration (MIC).

Hela cells = assay: Cytotoxicity assay (MTS reduction); format: cell-based; details: concentrations up to 100 μM, 18 h, MTS reagent; data not shown
Protocol: Selected compounds were also tested for their ability to inhibit growth of mammalian cells so as to ascertain levels of cytotoxicity to the mammalian host, via an assay measuring the biological reduction of the inner salt of (3-(4,5-dimethylthiazol-2-yl)-5-(3-carboxymethoxyphenyl)-2-(4-sulfophenyl)-2H-tetrazolium (MTS reagent). Assays were performed in 96-well microtiter plates. Briefly, compounds at 100, 50, 25, and 12.5 μM concentrations were incubated with 2×10^4 Hela cells per well in Dulbecco's Modified Eagle Medium (Invitrogen Corporation) containing 1% Bovine Growth Serum (HyClone) for 18 h at 37° C. under 5% CO2.

[4] = Bone powder binding, LC/MS detection; details: 100 μM compound, Tris-HCl pH 7, 0.15M NaCl, ground rat tibia bone, 10 min
Protocol: as §1

[5] = 20 mg/kg IV, 3 days prior to infection

Row | Compound | effect of the medium (presence or absence of serum) on regeneration rate [1] | prophylactic effect in rat model of bone infection, in words (S. aureus ATCC 13709) | Binding to bone (%) Fluorescence [2] [%] | MIC [3] [µg/mL] | cytotoxicity (Hela cells) | also measured
1 | COc1c(N2CCN(C(=O)OC(C)OC(=O)CCCC(P(=O)(O)O)P(=O)(O)O)C(C)C2)c(F)cc2c(=O)c(C(=O)O)cn(C3CC3)c12 (stereo not drawn) [Compound 44] | fairly similar rates | unable to produce a positive result in vivo | 88.4 | 1 to 8 (≈ 1.41 to 11.3 µM) | – | Measured bacterial titer (Log CFU/g of bone) Test compound (S. aureus ATCC 13709; [5]): 4.72 ± 0.83 Log CFU/g of bone
2 | COc1c(N2C[C@@H]3CCCN[C@@H]3C2)c(F)cc2c(=O)c(C(=O)OCCCC(P(=O)(O)O)P(=O)(O)O)cn(C3CC3)c12 [Compound 14, 4,4-bisphosphonobutyl 7-((4aS,7aS)-octahydropyrrolo[3,4-b]pyridin-6-yl)-1-cyclopropyl-6-fluoro-1,4-dihydro-8-methoxy-4-oxoquinoline-3-carboxylate] | – | – | 93.8 | – | no signs of any cytotoxicity | drug released from the bone matter after 7 days of incubation, in words ([1]; medium not stated): signs of drug release
3 | COc1c(N2CCNC(C)C2)c(F)cc2c(=O)c(C(=O)O)cn(C3CC3)c12 (stereo not drawn) [Compound 15, Gatifloxacin, reference compound] | – | – | 0 | 0.5 to 1 (≈ 1.33 to 2.66 µM) | – | prophylactic effect on bacterial titer (S. aureus ATCC 13709; 10 mg/Kg (equivalent dose) 48 h prior to infection (FIG. 8)): without effect
4 | COc1c(N2C[C@@H]3CCCN(CC(P(=O)(O)O)P(=O)(O)O)[C@@H]3C2)c(F)cc2c(=O)c(C(=O)O)cn(C3CC3)c12 [Compound 5, 7-((4aS,7aS)-1-(2,2-bisphosphonoethyl)-octahydropyrrolo[3,4-b]pyridin-6-yl)-1-cyclopropyl-6-fluoro-1,4-dihydro-8-methoxy-4-oxoquinoline-3-carboxylic acid] | – | – | 92.2 | – | no signs of any cytotoxicity | drug released from the bone matter after 24 h, in words ([1]; 24 h, medium not stated): not measurable amount of drug released; drug released from the bone matter after 7 days of incubation, in words ([1]; medium not stated): only trace amounts
5 | COc1c(N2CCNC(C)C2)c(F)cc2c(=O)c(C(=O)OCCCC(P(=O)(O)O)P(=O)(O)O)cn(C3CC3)c12 (stereo not drawn) [Compound 18, 4,4-bisphosphonobutyl 7-(3-methylpiperazin-1-yl)-1-cyclopropyl-6-fluoro-1,4-dihydro-8-methoxy-4-oxoquinoline-3-carboxylate] | – | – | – | – | no signs of any cytotoxicity | Binding to bone (%) LC/MS [4]: 96.0 ± 2.4%
6 | COc1c(N2CCN(C(=O)CC(C)(C)c3cc(P(=O)(O)CP(=O)(O)O)ccc3OC(C)=O)C(C)C2)c(F)cc2c(=O)c(C(=O)O)cn(C3CC3)c12 (stereo not drawn) [Compound 141] | fairly similar rates | efficient prophylactic effect | 36.6 | 4 (≈ 5.32 µM) | – | Measured bacterial titer (Log CFU/g of bone) Test compound (S. aureus ATCC 13709; 45.4 mg/kg IV, 2 days prior to infection): 2.40 ± 0.44 Log CFU/g of bone; binding to osseous matter, in words ([2]; bisphosphonates bearing three hydroxy groups): less effectively bound
7 | COc1c(N2C[C@@H]3CCCN[C@@H]3C2)c(F)cc2c(=O)c(C(=O)O)cn(C3CC3)c12 [Compound 3, Moxifloxacin, reference compound] | – | – | 0 | 0.5 to 1 (≈ 1.25 to 2.49 µM) | – | bacterial titer compared with untreated group (S. aureus ATCC 13709): significant decrease in the bacterial titer; bacterial titer compared with untreated group (S. aureus ATCC 13709; listed as moxifloxacin 3): significant (p<0.05) decrease in bacterial titer; also recorded: significant (p-value ≦0.0002) decrease in bacterial titer; prophylaxis by the parent drug, in words (S. aureus ATCC 13709; used five or two days prior to infection): unable to exhibit such efficient prophylaxis
8 | COc1c(N2CCNC(C)C2)c(F)cc2c(=O)c(C(=O)OCC(=O)Nc3ccc(CC(P(=O)(O)O)P(=O)(O)O)cc3)cn(C3CC3)c12 (stereo not drawn) [Compound 64, (4-(2,2-Bisphosphonoethyl)phenylcarbamoyl)methyl 7-(3-methylpiperazin-1-yl)-1-cyclopropyl-6-fluoro-1,4-dihydro-8-methoxy-4-oxoquinoline-3-carboxylate] | fairly similar rates | – | 88.9 | – | no signs of any cytotoxicity | –
9 | COc1c(N2CCN(C(=O)OC(C)OC(=O)CCCC(=O)NC(P(=O)(O)O)P(=O)(O)O)C(C)C2)c(F)cc2c(=O)c(C(=O)O)cn(C3CC3)c12 (stereo not drawn) [Compound 39] | fairly similar rates | unable to produce a positive result in vivo | 94.3 | – | no signs of any cytotoxicity | Measured bacterial titer (Log CFU/g of bone) Test compound (S. aureus ATCC 13709; [5]): 4.63 ± 0.39 Log CFU/g of bone
